Data from patent US20080306002A1, “Combination Therapy for Preventing Angiogenesis” (The General Hospital Corporation, priority 2005, published 2008).

Columns and labels:
IL-8 = IL-8 mRNA (qRT-PCR) in parental DLD-1 cells given t-butyl hydroperoxide; assay type: cell-based
Experimental: Real-time PCR assay. RNA was extracted using the RNeasy kit (Qiagen) and quantitative reverse-transcription PCR was performed using the SuperScript III platinum Two-Step qRT-PCR Kit (Invitrogen). Primer sequences for VEGF, IL-8, and 18S RNA are available upon request. A fluorogenic SYBR Green and MJ research detection system were used for real time quantification.
Hydrogen peroxide studies. Measurement of H2O2 was performed using the Amplex Red Hydrogen peroxide Assay Kit and the CM-H2DCFDA reagent (both Molecular Probe). Cells were exposed to hypoxia for 10 h, and then culture medium was switched to Krebs-Ringer phosphate buffer^30 containing 100 μM Amplex Red reagent and 0.2 U/mL HRP. After additional incubation in hypoxia for 1 h, fluorescence was measured in 96-well plates by Spectra MAX GEMINI XS microplate fluorometer (Molecure Devices). Cells were also incubated with 10 μM CM-H2DCFDA for 30 minutes in RPMI without phenol red. Fluorescence was measured in 96 well plates and values were normalized to cell number. 20 or 40 μM t-butyl hydroperoxide (t-BH, Sigma) was added to the culture media of DLD-1 cells every 30 minutes for 6 hours, and IL-8 mRNA levels were measured by qRT-PCR.

IL8 promoter [1] = assay: IL-8 promoter reporter assay in DLD-1^HIF-kd cells in hypoxia; assay type: cell-based
Experimental: (§1) Cell lines. DLD-1 and Caco2 cells (ATCC) were stably transfected with HIF-1α siRNA constructs (pSuper.retro, OligoEngine), pSR.HIF-1α1470 or pSR.HIF-1α2192^10. […] In a pilot xenograft study, growth, microvascular density, VEGF and IL-8 levels were similar between a pSR.HIF-1α1470 clone and pSR.HIF-1α2192 clone. […] Transient transfections were performed using Lipofectamine 2000 (Invitrogen).
(§2) Transfections and Reporter Assays. 0.1-0.2 μg reporter constructs were co-transfected with 2 ng of pRL-CMV (Promega) and luciferase activity was measured with the Dual Luciferase Reporter Assay System (Promega). pRL-null, a promoter-less Renilla construct, was used when cells were co-transfected with a K-ras expression vector^29. The relative luciferase activity was calculated as Firefly/Renilla luciferase activity. The level of ‘hypoxic induction’ was the ratio between the relative luciferase activity in hypoxia to that in normoxia.

IL8 promoter [2] = assay: IL-8 promoter reporter assay in Caco2 cells with KRAS^V12 and hypoxia; assay type: cell-based
Experimental: as §1, §2

NF-κB = NF-κB reporter assay in DLD-1^HIF-kd cells in hypoxia; assay type: cell-based
Experimental: Cell lines. DLD-1 and Caco2 cells (ATCC) were stably transfected with HIF-1α siRNA constructs (pSuper.retro, OligoEngine), pSR.HIF-1α1470 or pSR.HIF-1α2192^10. […] Transient transfections were performed using Lipofectamine 2000 (Invitrogen).
as §2

VEGF = settings: plus chemotherapy vs chemotherapy alone; cited from earlier work
Chain of VEGF (P15692 207-311 limits assumed): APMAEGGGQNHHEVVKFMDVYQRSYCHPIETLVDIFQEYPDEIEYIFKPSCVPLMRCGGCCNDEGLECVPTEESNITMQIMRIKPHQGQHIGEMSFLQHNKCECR

With `Cc1ccc(S(=O)(=O)/C=C/C#N)cc1` [BAY 11-7082] the “induction of IL-8 by t-butyl hydroperoxide” value (IL-8; 5 μM BAY 11-7082) was “inhibited”, the “hypoxic induction of the IL8 promoter” value (IL8 promoter [1]) was “significantly down-regulated” and the “induction of the IL8 promoter by hypoxia and KRAS^V12” value (IL8 promoter [2]) was “blocked”.
With `C=C(C)[C@H]1Cc2c(ccc3c2O[C@@H]2COc4cc(OC)c(OC)cc4[C@@H]2C3=O)O1` [rotenone] the “induction of NF-κB promoter activity by hypoxia” value (NF-κB) was “strongly blocked”.
For `CC(C)(C)OO` [t-butyl hydroperoxide], the “production of IL-8” value (IL-8; exogenous administration) was “stimulated”.
For “Avastin: A monoclonal antibody to VEGF; recombinant humanized antibody (Genentech)”, the survival (VEGF) is given as “greater” and the time to progression (VEGF) is given as “highly significant longer”.
In the case of `c1ccc2c(c1)[I+]c1ccccc1-2` [diphenylene iodonium], the “induction of NF-κB promoter activity by hypoxia” value (NF-κB) is reported as “strongly blocked”.
